Measurements published in EP3714904B1, “IMINODIACETIC ACID SUBSTITUTED CYCLODEXTRINS AS POTENTIATORS OF BETA-LACTAM ANTIBIOTICS” (NATIONAL CENTER FOR SCIENTIFIC RESEARCH "DEMOKRITOS" (NCSRD), priority 2019, dated 2020).
Read-outs that look alike come from different tables or passages of the source.

Key:
NDM-1 = NDM-1 (Klebsiella pneumoniae, UniProt C7C422); test: Spectrophotometric IC50 determination against MBL; assay type: biochemical; conditions: ± 0.32
VIM-1 = VIM-1 (Pseudomonas aeruginosa, UniProt A0A0F7KYQ8); test: Spectrophotometric IC50 determination against MBL; assay type: biochemical; conditions: ± 1.07
Acinetobacter baumannii = test: MIC of β-lactams alone or with 50 µM IDACYD against clinical isolates; assay type: cell-based; conditions: for MIC: Acinetobacter baumannii, alone
Description: (§1) Further the in-vitro inhibitory activity of IDACYDs was tested against highly resistant pathogens. Tables 3, 4 and 5 show the effect of IDACYDs using a collection of 36 highly resistant Gram negative strains (Table 2, Kirby-Bauer disc diffusion method) producing NDM, VIM and IMP type MBLs as well as 6 isolates expressing serine beta-lactamases (ESBLs, AmpCs). […] Clinical isolates co-expressing ESBLs and/or AmpC β-lactamases along with MBLs where re-sensitized to both imipenem and meropenem, as expected. Table 2: Collection of clinical isolates used for in-vitro evaluation

Enterobacter gergoviae = test: as above; assay type: cell-based; conditions: for MIC: Pluralibacter gergoviae, alone
Description: as §1

Escherichia coli = test: as above; assay type: cell-based; conditions: for MIC: Escherichia coli, alone
Description: as §1

Proteus mirabilis = test: as above; assay type: cell-based; conditions: for MIC: Proteus mirabilis, alone
Description: as §1

Providencia stuartii = test: as above; assay type: cell-based; conditions: for MIC: Providencia stuartii, alone
Description: as §1

Serratia marcescens = test: as above; assay type: cell-based; conditions: isolate EUG-815 (VIM, CMY)
Description: as §1

[1] = tested on: MBL producing clinical strains; test: MIC potentiation over the whole collection of isolates; assay type: cell-based; conditions: 50 µM β-IDACYD
Description: as §1

[2] = tested on: NDM, VIM and IMP producing K. pneumoniae clinical isolates; test: Time kill assays; assay type: cell-based
Description: In Fig. 3 the results of the time-kill assays are shown. […] Results are expressed as log10 CFU/mL. Experiments were performed in duplicate. Antibiotic-free control cultures were included in each set of experiments as controls. Error bars are indicative of standard error mean (SEM) (n=2 replicates).

[3] = Plasma levels of metal ions, creatinine and urea in infected mice; assay type: in vivo, CD-1 mice; conditions: 30 mg/kg meropenem + 20 mg/kg β-IDACYD every 2 h for 24 h, 0 h, 6 h, 140 h
Description: Example 10. Examination of the cross-reactivity of β-IDACYD with vital metal ions in mouse plasma and of induction of immune responses in infected mice: In order to examine a potential cross-reactivity of the β-IDACYD with metal ions necessary for the maintenance of homeostasis, plasma was isolated by centrifugation (3,000 rpm, 5 min) from all blood samples collected. The plasma levels of four metal ions (calcium, magnesium, phosphate and iron) as well as the levels of creatinine and urea were determined using an Olympus AU 600 analyser. […] In Fig. 8 is shown the plasma concentration in mg/dL of calcium, iron, phosphate and magnesium ions, as well as urea and creatinine derived from CD-1 mice infected with a lethal dose (10^7 CFU) of NDM-1 producing K. pneumoniae strain LA26. […] Treatment was given every 2h for a 24h period and blood was drawn and plasma was isolated at time points 0h, 6h, 24h and 140h (7d) post treatment initiation.

[4] = Luminex assay of lymphokines, cytokines and pro-inflammatory proteins in plasma of infected mice; assay type: in vivo; conditions: plasma from all the sepsis therapeutic schemes
From the text: As a way to further measure and evaluate the in-vivo potency and safety of β-IDACYD, we determined the levels of a series of lymphokines, cytokines, and pro-inflammatory indicator proteins. The levels of Th17 immune response related ILs 17E, 6, 1β, 4, 21, 10, 17A, 17F, IFN-g, MIP-3a, TNF-a and TNF-b were all determined in a luminex assay using plasma isolated from the mice involved in all the sepsis therapeutic schemes. […] The observation was supported by the levels of the inflammatory response proteins CRP and SAP.

NDM-1, sequence (C7C422 29-270, looked up): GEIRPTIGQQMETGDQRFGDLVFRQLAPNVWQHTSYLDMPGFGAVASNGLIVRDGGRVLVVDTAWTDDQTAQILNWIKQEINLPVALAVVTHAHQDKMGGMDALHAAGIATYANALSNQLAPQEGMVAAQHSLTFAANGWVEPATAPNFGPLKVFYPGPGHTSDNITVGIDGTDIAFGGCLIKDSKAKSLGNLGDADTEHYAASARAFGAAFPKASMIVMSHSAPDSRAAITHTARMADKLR

CO[C@@H]1[C@@H](OC)[C@H]2O[C@H]3[C@H](OC)[C@@H](OC)[C@@H](O[C@H]4[C@H](OC)[C@@H](OC)[C@@H](O[C@H]5[C@H](OC)[C@@H](OC)[C@@H](O[C@H]6[C@H](OC)[C@@H](OC)[C@@H](O[C@H]7[C@H](OC)[C@@H](OC)[C@@H](O[C@H]8[C@H](OC)[C@@H](OC)[C@@H](O[C@@H]1[C@@H](CN(CC(=O)O)CC(=O)O)O2)O[C@@H]8CN(CC(=O)O)CC(=O)O)O[C@@H]7CN(CC(=O)O)CC(=O)O)O[C@@H]6CN(CC(=O)O)CC(=O)O)O[C@@H]5CN(CC(=O)O)CC(=O)O)O[C@@H]4CN(CC(=O)O)CC(=O)O)O[C@@H]3CN(CC(=O)O)CC(=O)O [β-IDACYD]
IC50 (NDM-1): 1.63 µM | IC50 (VIM-1): 15 µM | Imipenem /50µM β-IDACYD MIC (Acinetobacter baumannii; isolate TZAN-40 (VIM, OXA-58)): 0.25 µg/mL | Meropenem /50µM β-IDACYD MIC (Acinetobacter baumannii; isolate TZAN-40 (VIM, OXA-58)): 2 µg/mL | Imipenem /50µM β-IDACYD MIC (Acinetobacter baumannii; isolate TZAN-42 (VIM, OXA-58)): 2 µg/mL | Meropenem /50µM β-IDACYD MIC (Acinetobacter baumannii; isolate TZAN-42 (VIM, OXA-58)): 8 µg/mL | Imipenem /50µM β-IDACYD MIC (Enterobacter gergoviae; isolate AK-5227 (VIM, CMY)): 1 µg/mL | Meropenem /50µM β-IDACYD MIC (Enterobacter gergoviae; isolate AK-5227 (VIM, CMY)): <0.25 µg/mL | Imipenem /50µM β-IDACYD MIC (Enterobacter gergoviae; isolate AK-5240 (VIM, CMY)): <0.125 µg/mL | Meropenem /50µM β-IDACYD MIC (Enterobacter gergoviae; isolate AK-5240 (VIM, CMY)): <0.25 µg/mL | Ceftazidime/ 50µM β-IDACYD MIC (Escherichia coli; isolate TZAN-116 (VIM)): <0.25 µg/mL | Imipenem /50µM β-IDACYD MIC (Escherichia coli; isolate TZAN-116 (VIM)): <0.125 µg/mL | Meropenem /50µM β-IDACYD MIC (Escherichia coli; isolate TZAN-116 (VIM)): <0.25 µg/mL | Imipenem /50µM β-IDACYD MIC (Escherichia coli; isolate TZAN-541 (VIM)): <0.125 µg/mL | Meropenem /50µM β-IDACYD MIC (Escherichia coli; isolate TZAN-541 (VIM)): <0.25 µg/mL | Imipenem /50µM β-IDACYD MIC (Proteus mirabilis; isolate ALX-13 (VIM, VEB)): 1 µg/mL | Meropenem /50µM β-IDACYD MIC (Proteus mirabilis; isolate ALX-13 (VIM, VEB)): 0.5 µg/mL | Imipenem /50µM β-IDACYD MIC (Proteus mirabilis; isolate ESDY-17 (VIM, CMY)): <0.125 µg/mL | Meropenem /50µM β-IDACYD MIC (Proteus mirabilis; isolate ESDY-17 (VIM, CMY)): <0.25 µg/mL | Ceftazidime/ 50µM β-IDACYD MIC (Proteus mirabilis; isolate ESDY-15184 (VIM, CMY)): <0.25 µg/mL | Imipenem /50µM β-IDACYD MIC (Proteus mirabilis; isolate ESDY-15184 (VIM, CMY)): 0.125 µg/mL | Meropenem /50µM β-IDACYD MIC (Proteus mirabilis; isolate ESDY-15184 (VIM, CMY)): <0.25 µg/mL | Imipenem /50µM β-IDACYD MIC (Proteus mirabilis; isolate ESDY-15315 (VIM, CMY)): <0.125 µg/mL | Meropenem /50µM β-IDACYD MIC (Proteus mirabilis; isolate ESDY-15315 (VIM, CMY)): <0.25 µg/mL | Ceftazidime/ 50µM β-IDACYD MIC (Providencia stuartii; isolate ALX- 21 (VIM, VEB)): 16 µg/mL | Imipenem /50µM β-IDACYD MIC (Providencia stuartii; isolate ALX- 21 (VIM, VEB)): 0.25 µg/mL | Meropenem /50µM β-IDACYD MIC (Providencia stuartii; isolate ALX- 21 (VIM, VEB)): <0.25 µg/mL | Imipenem /50µM β-IDACYD MIC (Providencia stuartii; isolate ALX-27 (VIM)): <0.125 µg/mL | Meropenem /50µM β-IDACYD MIC (Providencia stuartii; isolate ALX-27 (VIM)): <0.25 µg/mL | Ceftazidime/ 50µM β-IDACYD MIC (Providencia stuartii; isolate ESDY-4559 (VIM)): <0.25 µg/mL | Imipenem /50µM β-IDACYD MIC (Providencia stuartii; isolate ESDY-4559 (VIM)): <0.125 µg/mL | Meropenem /50µM β-IDACYD MIC (Providencia stuartii; isolate ESDY-4559 (VIM)): <0.25 µg/mL | Imipenem /50µM β-IDACYD MIC (Providencia stuartii; isolate ESDY-4563 (VIM, VEB)): <0.125 µg/mL | Meropenem /50µM β-IDACYD MIC (Providencia stuartii; isolate ESDY-4563 (VIM, VEB)): <0.25 µg/mL | Ceftazidime/ 50µM β-IDACYD MIC (Serratia marcescens): <0.25 µg/mL | Imipenem /50µM β-IDACYD MIC (Serratia marcescens): <0.125 µg/mL | Meropenem /50µM β-IDACYD MIC (Serratia marcescens): <0.25 µg/mL | reduction of meropenem's and imipenem's minimum inhibitory concentration (MIC) [1]: up to 256 fold | reduction of the bacterial load (CFU/mL) compared to that of the antibiotic alone ([2]; 50 µM β-IDACYD with meropenem or imipenem at MIC or 2xMIC, 24 hour incubation, strains LA26, LA 109/16, 5742): > 8 log10 | bacterial load in time-kill assay ([2]; β-IDACYD 50 µM added to MIC or 2xMIC meropenem or imipenem): bacterial load remains close to zero | plasma levels of calcium, magnesium, phosphate, iron, creatinine and urea [3]: well within the control group range at all times | immune response (Th17 related ILs, IFN-g, MIP-3a, TNF-a, TNF-b; CRP, SAP) [4]: at no times induced an immune response | cell morphology under a microscope (L929 fibroblast cells): did not present any morphological differences characteristic of cytotoxicity

C[C@@H](O)[C@H]1C(=O)N2C(C(=O)O)=C(S[C@@H]3CN[C@H](C(=O)N(C)C)C3)[C@H](C)[C@H]12 [Meropenem, reference compound]
MIC (Acinetobacter baumannii; read-out: Meropenem MIC, isolate TZAN-40 (VIM, OXA-58)): 4 µg/mL | MIC (Acinetobacter baumannii; read-out: Meropenem MIC, isolate TZAN-42 (VIM, OXA-58)): 32 µg/mL | MIC (Enterobacter gergoviae; read-out: Meropenem MIC, isolate AK-5227 (VIM, CMY)): 2 µg/mL | MIC (Enterobacter gergoviae; read-out: Meropenem MIC, isolate AK-5240 (VIM, CMY)): 1 µg/mL | MIC (Escherichia coli; read-out: Meropenem MIC, isolate TZAN-116 (VIM)): 1 µg/mL | MIC (Escherichia coli; read-out: Meropenem MIC, isolate TZAN-541 (VIM)): 2 µg/mL | MIC (Proteus mirabilis; read-out: Meropenem MIC, Table 5, Pr m ESDY 15315 (VIM-1, CMY)): 16 µg/mL | MIC (Proteus mirabilis; read-out: Meropenem MIC, isolate ALX-13 (VIM, VEB)): 32 µg/mL | MIC (Proteus mirabilis; read-out: Meropenem MIC, isolate ESDY-17 (VIM, CMY)): 0.25 µg/mL | MIC (Proteus mirabilis; read-out: Meropenem MIC, isolate ESDY-15184 (VIM, CMY)): 2 µg/mL | MIC (Proteus mirabilis; read-out: Meropenem MIC, isolate ESDY-15315 (VIM, CMY)): 4 µg/mL | MIC (Providencia stuartii; read-out: Meropenem MIC, isolate ALX- 21 (VIM, VEB)): 2 µg/mL | MIC (Providencia stuartii; read-out: Meropenem MIC, isolate ALX-27 (VIM)): 2 µg/mL | MIC (Providencia stuartii; read-out: Meropenem MIC, isolate ESDY-4559 (VIM)): 4 µg/mL | MIC (Providencia stuartii; read-out: Meropenem MIC, isolate ESDY-4563 (VIM, VEB)): 2 µg/mL | MIC (Serratia marcescens; Serratia marcescens, read-out: Meropenem MIC, alone): 256 µg/mL
